Patent US20150216779A1, “COMPOSITIONS FOR TARGETED ANTI-AGING THERAPY” (THE TEXAS A&M UNIVERSITY SYSTEM, priority 2012, published 2015)

Experiments:
[1] = CoQ10 storage stability in delivery system at 30° C., HPLC; type: physicochemical; conditions: 8 weeks at 30° C.; dispersed in matrix of heat-stabilized lactoferrin alone and in combination with branched-chain amino acids
Experimental: A delivery system containing the anti-aging agent CoQ10 is prepared as follows: A. Encapsulated-1 (CoQ10). Primary Emulsion. […] This mixture was coarsely homogenized for 3 min using a hand blender. Secondary Emulsion.
The primary and secondary emulsions were blended at 1:1 ratio. The final emulsion system contained 0.5% Menhaden oil/Smart Blend Omega oil, 0.1% heat-stabilized lactoferrin, 0.1% CoQ10 and 0.1% high-methoxyl pectin (w/w). The zinc ion concentration after dilution became 2.4 mg/100 ml. This delivery system for CoQ10 was homogenized (72° C., 22.5 MPa), followed by pasteurization (72° C., 120 s). B. Encapsulated-2 (CoQ10). Primary Emulsion. […] This mixture was coarsely homogenized for 3 min using a hand blender. Secondary Emulsion. […] The primary and secondary emulsions were blended at 1:1 ratio. The final emulsion system contained 0.5% Menhaden oil/Smart Blend Omega oil, 0.1% heat-stabilized lactoferrin, 0.2% branched-chain amino acids, 0.1% CoQ10, and 0.1% high-methoxyl pectin (w/w). The zinc ion concentration after dilution became 2.4 mg/100 ml. This delivery system for CoQ10 was homogenized (72° C., 22.5 MPa), followed by pasteurization (72° C., 120 s). C. Unencapsulated (CoQ10). […] This mixture was homogenized (72° C., 22.5 MPa), followed by pasteurization (72° C., 120 s). […]

[2] = Lutein photo-stability in delivery system at 21° C. under light 12 h daily, HPLC-PDA-MS/MS; type: physicochemical; conditions: UV and visible light 12 h daily at 21° C. over 8 weeks; dispersed in heat-stabilized lactoferrin matrix
Experimental: A. Encapsulated-1 (Lutein). Primary Emulsion. […] This mixture was coarsely homogenized for 3 min using a hand blender. Secondary Emulsion.
The primary and secondary emulsions were blended at 1:1 ratio. The final emulsion system contained 0.5% Menhaden oil/Smart Blend Omega oil, 0.1% heat-stabilized lactoferrin, 0.1% lutein, and 0.1% high-methoxyl pectin (w/w). The zinc ion concentration after dilution became 2.4 mg/100 ml. This delivery system for lutein was homogenized (72° C., 22.5 MPa), followed by pasteurization (72° C., 120 s).
B. Encapsulated-2 (Lutein). Primary Emulsion. […] This mixture was coarsely homogenized for 3 min using a hand blender. Secondary Emulsion.
The primary and secondary emulsions were blended at 1:1 ratio. The final emulsion system contained 0.5% Menhaden oil/Smart Blend Omega oil, 0.1% heat-stabilized lactoferrin, 0.2% branched-chain amino acids, 0.1% lutein, and 0.1% high-methoxyl pectin (w/w). The zinc ion concentration after dilution became 2.4 mg/100 ml. This delivery system for lutein was homogenized (72° C., 22.5 MPa), followed by pasteurization (72° C., 120 s).
C. Unencapsulated (Lutein). […] This mixture was homogenized (72° C., 22.5 MPa), followed by pasteurization (72° C., 120 s).
The samples (500 ml each) were aseptically dispensed into clean, clear 600-ml bottles made from polyethylene terephthalate (PET). […]

[3] = O/W emulsion, menhaden oil/Smart Blend Omega oil 1:1 (0.5% w/w), entrapped within β-lactoglobulin microcarriers; 28 days of storage at 30° C.

## COC1=C(OC)C(=O)C(C/C=C(\C)CC/C=C(\C)CC/C=C(\C)CC/C=C(\C)CC/C=C(\C)CC/C=C(\C)CC/C=C(\C)CC/C=C(\C)CC/C=C(\C)CCC=C(C)C)=C(C)C1=O [CoQ10, coenzyme Q10]
[1]
  degradation of CoQ10 during storage: about 30%

## CC1=C[C@H](O)CC(C)(C)[C@H]1/C=C/C(C)=C/C=C/C(C)=C/C=C/C=C(C)/C=C/C=C(C)/C=C/C1=C(C)C[C@@H](O)CC1(C)C [lutein]
[2]
  light-sensitive degradation of xanthophyll carotenoid pigments (lutein): about 70%

## docohexaenoic acid [DHA]
[3]
  percentage of retained ω-3 fatty acid: 79.5%
